Assay results reported in US10329542B2, “HBV RNAse H purification and enzyme inhibitors” (Saint Louis University, priority 2012, dated 2019).

Experiments:
[1] = biological target: T1, HBV genotype D RNAseH (HRHPL) (Hepatitis B virus genotype D subtype ayw, UniProt P03156, INS679M); assay: Oligonucleotide-directed RNAseH cleavage assay, HBV genotype D; assay type: biochemical; settings: for Residual activity at 10 uM, Genotype D: ± standard deviation, 3 to 7 replicates; for Activity vs. HBV Biochemical vs. gtD: class by concentration giving inhibition (10, 20, 60 μM)
T1 construct: HRHPL contains HBV genotype D (Genbank V01460) polymerase residues 684-845; made in house; host or cells: E. coli BL21 codon+
T1 sequence (P03156 680-832, added parts left off, stated change not applied): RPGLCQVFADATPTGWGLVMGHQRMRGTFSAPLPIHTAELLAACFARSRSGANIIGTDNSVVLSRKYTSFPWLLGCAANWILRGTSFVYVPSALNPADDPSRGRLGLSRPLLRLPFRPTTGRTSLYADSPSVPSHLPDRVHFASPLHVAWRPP
Method: (§1) For the oligonucleotide-directed RNAseH cleavage assay (Gong et al., 2001), 6 μl protein extract (typical protein concentration 2.8 mg/ml) was mixed with 0.5 μg internally ^32P-labeled DRF+ RNA (nucleotides 2401-2605 of the duck HBV genome plus 60 nucleotides of flanking sequences from pBluescript) and 3 μg oligonucleotide D2507- or its corresponding negative control D2526+ on ice in 20 μl under the conditions in Table 1. Some reactions in FIG. 5 employed oligonucleotide D2543M-Sal or its D2453+ negative control as indicated. The reactions were incubated at 42° C. for 90 min. and terminated by addition of Laemmli protein loading buffer and boiling. The samples were resolved by 12% SDS-PAGE, the gels were stained with Coomassie blue to monitor protein loading, and labeled RNA was detected by autoradiography. Candidate inhibitors were dissolved in DMSO and added at the indicated concentrations during assembly of the reactions. Control reactions lacking the compounds contained DMSO as a vehicle control. The RNAseH autoradiograms were scanned and quantified with ImageJ.
(§2) Oligonucleotide-directed RNAseH cleavage assays (Gong et al., 2001) were performed as described (Tavis et al., 2013). Briefly, HBV RNAseH extracts were mixed with a 264 nt-long internally ^32P-labeled RNA plus an excess of a complementary DNA oligonucleotide or its inverse-complement as a negative control in a final concentration of 65 mM Tris pH 8.0, 190 mM NaCl, 5 mM MgCl2, 5 mM dTT, 0.05% NP40, and 6% glycerol. βTJ was dissolved in DMSO and added at the indicated concentrations; the final concentration of DMSO in all reactions was 1%. The reactions were incubated at 42° C. for 90 min. and terminated by addition of Laemmli protein electrophoresis buffer. The samples were resolved by SDS-PAGE, labeled RNA was detected by autoradiography, the autoradiograms were scanned, and the RNA cleavage products were quantified with ImageJ (National Institutes of Health). IC50 values were calculated by non-linear regression using GraphPad Prism (GraphPad Software, Inc.).

HBV genotype H RNAseH = assay: Oligonucleotide-directed RNAseH cleavage assay, HBV genotype H; assay type: biochemical, Hepatitis B virus; settings: 10 μM; for Residual activity at 10 uM, Genotype H: ± standard deviation, 3 to 7 replicates
Method: as §1, with “ImageJ. The oligonucleotides were: D2526+([…]; SEQ ID NO:8), D2507-([…]; SEQ ID NO:9), D2453+([…]; SEQ ID NO:10), and D2543M-Sal ([…]; SEQ ID NO:11).” for “ImageJ.”
as §2

HBV = HBV genomic replication assays (Table 2); assay type: cell-based, Hepatitis B virus; settings: class by active concentration
Method: Huh7 cells were maintained in Dulbecco's modified Eagle's medium with 10% fetal bovine serum at 37° C. in 5% CO2. Cells were seeded into 60 mm dishes and transfected at 70% confluency with 2.6 μg of plasmids using TransIT-LT1 (Mirus, Inc.). Test compounds were added the morning following transfection at 10 or 50 μM, and fresh medium containing the compounds was provided every 1-2 days. Four or five days post-transfection HBV cores were isolated by lysis of the cells in 10 mM Tris pH 7.5, 1 mM EDTA, 0.25% NP40, 50 mM NaCl, and 8% sucrose followed by sedimentation through a 30% sucrose cushion as described (Travis, et al., 1998). Viral DNAs were isolated from cytoplasmic core particle preparations by proteinase K digestion followed by phenol/chloroform extraction as described (Gong et al., 2001). Duplicate aliquots of the nucleic acids were treated with 2 U E. coli DNAse-free RNAseH (Invitrogen) at 37° C. for 30 min. or were mock treated. The nucleic acid samples were resolved by electrophoresis on 1.2% agarose gels and detected by Southern blotting with ^32P-labeled HBV DNA as a probe. […]

[2] = biological target: T2, chimeric HBV:HIV RNAseH HHC1 (Hepatitis B virus genotype D subtype ayw, UniProt P03156, DELINS787-795[…]/INS679M); assay: Oligonucleotide-directed RNAseH cleavage assay, chimeric HHC1; assay type: biochemical; settings: 10 μM; ± standard deviation, 3 to 7 replicates
T2 construct: HHC1 is an HRHPL derivative; made in house; host or cells: E. coli BL21 codon+
T2 sequence (P03156 680-786, added parts left off, stated change not applied): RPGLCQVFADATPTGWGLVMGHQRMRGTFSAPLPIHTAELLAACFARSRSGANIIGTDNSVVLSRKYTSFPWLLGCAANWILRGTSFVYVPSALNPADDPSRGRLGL
Text: pCMV-HBV-LE-(CMV-HBV) is an HBV over-length genomic expression vector containing 1.2 copies of the HBV(adw2) genome (Genbank X02763.1) downstream of the CMV promoter cloned into pBS (Promega). Surface protein expression from this vector is ablated by mutating the preS and S open reading frames. pCMV-HBV(genotype D) is an analogous HBV genomic expression construct and was a gift from Dr. Shuping Tong (Brown University). For bacterial expression, codon-optimized cDNA sequences for HRHPL (genotypes A, B, C, D, and H), and noncodon-optimized sequences for HHC1 and HHC2 were cloned by gene synthesis (Genscript) between the NcoI and EcoRI sites into pTrcHis2B (Invitrogen) with a C-terminal hexahistidine tag. HRHPL contains HBV genotype D (Genbank V01460) polymerase residues 684-845. HHC1 is an HRHPL derivative in which HBV polymerase residues 800-808 were replaced with HIV residues corresponding to the RNAseH helix D ([…]; SEQ ID NO:6). HHC2 is an HRHPL derivative in which HBV polymerase residues 800-845 were replaced with HIV residues corresponding to the RNAseH helix D to the C-terminus ([…]; SEQ ID NO:7). The human RNAseH1 gene (NP_002927.2) was cloned with an N-terminal hexahistidine-tag between the BamHI and XhoI sites of pRsetB (Invitrogen) by gene synthesis.
as §1, with “ImageJ. The oligonucleotides were: D2526+([…]; SEQ ID NO:8), D2507-([…]; SEQ ID NO:9), D2453+([…]; SEQ ID NO:10), and D2543M-Sal ([…]; SEQ ID NO:11).” for “ImageJ.”

COc1ccc2ccccc2c1C=NNC(=O)c1ccc(O)c(O)c1 [Compound 13]
Residual activity at 10 uM, Genotype D [1]: 52 ± 12 Percent DMSO control | Activity vs. HBV Biochemical vs. gtD [1]: − (− no inhibition at 60 μM) | Residual activity at 10 uM, Genotype H (HBV genotype H RNAseH): 42 ± 26 Percent DMSO control | Activity vs. HBV Genomic Replication (HBV): − (− no activity at 60 μM) | Residual activity at 10 uM, HHC1 [2]: 65 ± 14 Percent DMSO control

NC(=O)c1c(N)sc2c1CCCCC2 [Compound 3]
Residual activity at 10 uM, Genotype D [1]: 43 ± 14 Percent DMSO control | Activity vs. HBV Biochemical vs. gtD [1]: − (− no inhibition at 60 μM) | Residual activity at 10 uM, Genotype H (HBV genotype H RNAseH): 68 ± 14 Percent DMSO control | Activity vs. HBV Genomic Replication (HBV): − (− no activity at 60 μM) | Residual activity at 10 uM, HHC1 [2]: 60 ± 19 Percent DMSO control

O=c1cc2oc3cc(O)c(O)cc3c(-c3ccccn3)c-2cc1O [Compound 39]
Residual activity at 10 uM, Genotype D [1]: 21 ± 2 Percent DMSO control | Inhibition of HBV genotype H RNAseH (HBV genotype H RNAseH; below threshold of irrelevant controls): inhibited | Residual activity at 10 uM, Genotype H (HBV genotype H RNAseH): 26 ± 0 Percent DMSO control | Residual activity at 10 uM, HHC1 [2]: 60 ± 24 Percent DMSO control

O=C(O)c1ccc(-c2cccc(C=NNC(=O)c3cc(O)c(O)c(O)c3)c2)cc1 [Compound 15]
Residual activity at 10 uM, Genotype D [1]: 47 ± 4 Percent DMSO control | Activity vs. HBV Biochemical vs. gtD [1]: − (− no inhibition at 60 μM) | Residual activity at 10 uM, Genotype H (HBV genotype H RNAseH): 37 ± 23 Percent DMSO control | Activity vs. HBV Genomic Replication (HBV): − (− no activity at 60 μM) | Residual activity at 10 uM, HHC1 [2]: 68 ± 6 Percent DMSO control

COC(=O)Oc1nsnc1N1CCOCC1 [Compound 4]
Residual activity at 10 uM, Genotype D [1]: 35 ± 6 Percent DMSO control | Activity vs. HBV Biochemical vs. gtD [1]: + (+ inhibition at 60 μM) | Residual activity at 10 uM, Genotype H (HBV genotype H RNAseH): 68 ± 18 Percent DMSO control | Activity vs. HBV Genomic Replication (HBV): − (− no activity at 60 μM) | Residual activity at 10 uM, HHC1 [2]: 37 ± 5 Percent DMSO control

Cc1sc2nc(-c3ccc([N+](=O)[O-])cc3)[nH]c(=O)c2c1C [Compound 38]
Residual activity at 10 uM, Genotype D [1]: 24 ± 1 Percent DMSO control | Activity vs. HBV Biochemical vs. gtD [1]: +++ (+++ inhibition at 10 μM) | Residual activity at 10 uM, Genotype H (HBV genotype H RNAseH): 38 ± 25 Percent DMSO control | Activity vs. HBV Genomic Replication (HBV): − (− no activity at 60 μM) | Residual activity at 10 uM, HHC1 [2]: 32 ± 4 Percent DMSO control

CC(Cc1ccc(O)c(O)c1)C(C)Cc1ccc(O)c(O)c1 (stereo not shown) [Compound 2]
Residual activity at 10 uM, Genotype D [1]: 54 ± 18 Percent DMSO control | Activity vs. HBV Biochemical vs. gtD [1]: − (− no inhibition at 60 μM) | Residual activity at 10 uM, Genotype H (HBV genotype H RNAseH): 67 ± 20 Percent DMSO control | Activity vs. HBV Genomic Replication (HBV): − (− no activity at 60 μM) | Residual activity at 10 uM, HHC1 [2]: 35 ± 6 Percent DMSO control
